Measured values: paper PMC7936488, “An efficient system for intestinal on-site butyrate production using novel microbiome-derived esterases” (Journal of Biological Engineering, 2021)

Columns and labels:
[1] = molecular target: T1, LL_Tbe (Lactococcus lactis, UniProt Q9L9X0); experiment: p-nitrophenol release at […] nm, E. coli tEc cells expressing the gene vs empty vector; format: cell-based; settings: whole-cell culture aliquot, 5 min
T1 construct: gene estA; gene in pBAD24 under tbe1 promoter, E. coli tEc cells, not purified
T1 sequence (Q9L9X0 1-258): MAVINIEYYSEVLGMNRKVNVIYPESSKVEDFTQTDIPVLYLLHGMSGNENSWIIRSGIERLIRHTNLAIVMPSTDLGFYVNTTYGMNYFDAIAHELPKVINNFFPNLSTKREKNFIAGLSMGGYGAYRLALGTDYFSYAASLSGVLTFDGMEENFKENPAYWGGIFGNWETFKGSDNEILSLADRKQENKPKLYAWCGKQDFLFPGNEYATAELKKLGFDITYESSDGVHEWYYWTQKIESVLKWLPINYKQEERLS

[2] = molecular target: T2, SP_Est (Streptococcus pneumoniae, UniProt A0A0H2UNZ8); experiment: as above; format: cell-based; settings: whole-cell culture aliquot, 5 min
T2 construct: gene estA; gene in pBAD24 under tbe1 promoter, E. coli tEc cells, not purified
T2 sequence (A0A0H2UNZ8 1-259): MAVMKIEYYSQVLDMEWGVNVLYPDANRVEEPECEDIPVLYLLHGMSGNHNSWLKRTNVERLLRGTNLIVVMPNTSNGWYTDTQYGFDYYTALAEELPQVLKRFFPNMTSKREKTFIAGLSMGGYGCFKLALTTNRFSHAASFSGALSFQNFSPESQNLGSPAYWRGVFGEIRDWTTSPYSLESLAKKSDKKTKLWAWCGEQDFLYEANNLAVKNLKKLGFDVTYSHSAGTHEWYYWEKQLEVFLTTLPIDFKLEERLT

CCCC(=O)Oc1ccc([N+](=O)[O-])cc1 [4-nitrophenyl butyrate]
p-nitrophenol release at 400 nm, E. coli tEc cells expressing the gene vs empty [1]: Tbe1 demonstrated almost identical activity to the L. lactis enzyme | p-nitrophenol release at 400 nm, E. coli tEc cells expressing the gene vs empty [2]: the esterase of S. pneumoniae was the most potent among the four tested enzymes
